Measurements from US20100132066A1, “AGROBACTERIUM-MEDIATED METHOD FOR PRODUCING TRANSFORMED PLANT WITHOUT SELECTION STEP” (JAPAN TOBACCO INC., priority 2007, published 2010).

What was measured:
[1] = system: Maize (variety: A188) immature embryos; test: Regeneration of whole plants from immature embryos cultured on coculture medium supplemented with various types of auxin (Example 1); type: cell-based; settings: auxin 1.5 mg/l in coculture medium; for Regeneration rate (%): 7 days, no selection step, LSZ medium 30 mg/l hygromycin about 2 weeks, LBA4404 (pSB134), 25 immature embryos; for Vigor: mean score 0-3 of regenerated plants, 2 weeks on regeneration medium
Excerpt: As used herein, the term “vigor” is intended to mean the growth vigor of a regenerated plant. The vigor of a plant may be measured by any known technique used in the art. For example, in the case of maize, scoring may be performed as follows for each transformed plant tissue after the regeneration step: transformed plant tissue showing no regeneration=0, transformed plant tissue giving a regenerated shoot whose maximum length is less than 5 mm=1, transformed plant tissue giving a regenerated shoot whose maximum length is 5 mm to less than 2 cm=2, and transformed plant tissue giving a regenerated shoot whose maximum length is 2 cm or longer=3, followed by calculating a mean value for all transformed plant tissues to thereby determine their vigor. The method of evaluation of vigor is not limited to this technique, and appropriate modifications may be made to well-known techniques, e.g., depending on the type of target to be evaluated.
25 immature embryos were provided for each test. The bar graph (vertical axis on the left side) represents the vigor of regenerated plants, the line graph (vertical axis on the right side) represents the regeneration rate (calculated by dividing the number of immature embryos showing regeneration in each test by the number of inoculated immature embryos), and the horizontal axis represents the type of auxin contained in a coculture medium. The auxin concentration in the coculture medium was set to 1.5 mg/l for each test. The vigor of regenerated plants was evaluated by scoring as follows: immature embryo showing no regeneration=0, immature embryo giving a regenerated shoot whose maximum length is less than 5 mm=1, immature embryo giving a regenerated shoot whose maximum length is 5 mm to less than 2 cm=2, and immature embryo giving a regenerated shoot whose maximum length is 2 cm or longer=3.
Maize (variety: A188) immature embryos (1.0 to 1 5 mm in size) at 7 to 14 days after pollination were aseptically collected and washed once with LS-inf liquid medium (Non-patent Publication No. 11), followed by pretreatment (thermal treatment at 46° C. for 3 minutes and centrifugation at 15,000 rpm for 10 minutes) to increase gene transfer efficiency. In LS-inf liquid medium containing 100 μM acetosyringone, Agrobacterium strain LBA4404 (pSB134) (Non-patent Publication No. 27) was suspended at about 1.0×10^9 cfu/ml to prepare an inoculum. The thermally-treated and centrifuged immature embryos were mixed with the inoculum, vortexed for 30 seconds, and then allowed to stand for 5 minutes at room temperature.
The number of immature embryos which regenerated into whole plants was determined, and the regenerated plants were examined for their vigor.

[2] = system: Immature embryos (variety: A188); test: Effect of dicamba and 2,4-D in coculture medium on regeneration (Example 2, FIG. 3); type: cell-based, Maize; settings: for vigor of regenerated plants: mean score 0-3, coculture medium with this auxin alone (1.5 mg/l), selection step eliminated, FIG. 3
Excerpt: FIG. 3 is a graph showing the effects of the dicamba/2,4-D ratio on the plant regeneration rate from cocultured immature embryos and on the vigor of regenerated plants. 38 immature embryos were provided for each test. The bar graph (vertical axis on the left side) represents the vigor of regenerated plants, the line graph (vertical axis on the right side) represents the regeneration rate (calculated by dividing the number of immature embryos showing regeneration in each test by the number of inoculated immature embryos), and the horizontal axis represents the percentage of dicamba contained in a coculture medium. The numerical values on the horizontal axis mean that auxin is contained in the coculture medium at the following ratios: 0 mg/l dicamba+1.5 mg/l 2,4-D (0% dicamba), 0.375 mg/l dicamba+1.125 mg/l 2,4-D (25% dicamba), 0.75 mg/l dicamba+0.75 mg/l 2,4-D (50% dicamba), 1.125 mg/l dicamba+0.375 mg/l 2,4-D (75% dicamba), and 1.5 mg/l dicamba+0 mg/l 2,4-D (100% dicamba). The vigor of regenerated plants was evaluated by scoring as follows: immature embryo showing no regeneration=0, immature embryo giving a regenerated shoot whose maximum length is less than 5 mm=1, immature embryo giving a regenerated shoot whose maximum length is 5 mm to less than 2 cm=2, and immature embryo giving a regenerated shoot whose maximum length is 2 cm or longer=3.
The vector U0009B shown in FIG. 2 and SEQ ID NO: 1 was constructed by adding necessary elements to a vector having pSB11 (Non-patent Publication No. 28) as a skeletal structure. […] The number of immature embryos which regenerated into whole plants was determined, and the regenerated plants were examined for their vigor.

[3] = system: Immature embryos (variety: A188); test: Transformation efficiency with regeneration medium containing blasticidin S (Example 4); type: cell-based, Maize; settings: for Number of immature embryos Regenerated: about 2 weeks, 46 inoculated
[4] = higher percentage of dicamba (0-100%, rest 2,4-D, total 1.5 mg/l) in coculture medium
[5] = 2 mg/l blasticidin S in regeneration medium

SMILES: O=C(O)COc1cc(Cl)c(Cl)cc1Cl [2,4,5-T, 2,4,5-trichlorophenoxyacetic acid]
- Regeneration rate (%) [1]: 84.0%
- Vigor [1]: 1.5

SMILES: O=C(O)COc1ccc(Cl)cc1Cl [2,4-D, 2,4-dichlorophenoxyacetic acid]
- vigor of regenerated plants [2]: 0.3
- Regeneration rate (%) [1]: 84.0%

SMILES: COc1c(Cl)ccc(Cl)c1C(=O)O [Dicamba, 3,6-dichloro-o-anisic acid]
- growth of the regenerated plants [2, 4]: more vigorous growth
- regeneration rate [2, 4]: higher regeneration rate
- vigor of regenerated plants [2]: 2.3
- Regeneration rate (%) [1]: 100%
- Vigor [1]: 1.5

SMILES: Nc1c(Cl)c(Cl)nc(C(=O)O)c1Cl [Picloram, 4-amino-3,5,6-trichloropicolinic acid]
- Regeneration rate (%) [1]: 76.4%
- Vigor [1]: 1.2

SMILES: O=C(O)c1cc(I)cc(I)c1I [TIBA, 2,3,5-triiodobenzoic acid]
- Regeneration rate (%) [1]: 4.0%
- Vigor [1]: 0.1

SMILES: CN(CC[C@H](N)CC(=O)N[C@H]1C=C[C@H](n2ccc(N)nc2=O)O[C@@H]1C(=O)O)C(=N)N [blasticidin, blasticidin S]
- GUS− [3, 5]: 12
- Number of immature embryos GUS+ (B) [3, 5]: 19
- Striped, dotted (C) [3, 5]: 14
- Number of immature embryos Regenerated [3, 5]: 45
- Number of immature embryos Regenerated ([3]; 2 mg/l blasticidin S in regeneration medium, listed as blasticidin S): Almost all
- B/A (%) ([3]; 2 mg/l blasticidin S, GUS+ per inoculated embryos): 41.3%
- C/A (%) ([3]; 2 mg/l blasticidin S, striped/dotted per inoculated embryos): 3.04%
